According to publication PMC4627342 (Oncotarget, 2015):
Like-named read-outs stand apart in the source and are kept apart here.

Columns and labels:
[1] = Adverse events in the hepatobiliary system in patients with HER2-overexpressing metastatic breast cancer; details: text count, cohort of 39 patients
liver = experiment: Swiss mice hepatotoxicity model; details: after 2 weeks, liver tissues
in vivo = details: both, NIH, mouse, iv
Protocol: Blood was collected from the retro-orbital plexus at designated time points and they were kept in cold heparin coated glass tubes. The blood from 1 male and 1 female was pooled and plasma was isolated and stored at −80°C until analysis. […] Pharmacokinetic parameters was determined from the concentration-time data by non compartment model using the 3P97 software (Practical Pharmacokinetics Software, Beijing, China).

Swiss mice liver tissues = experiment: Ex vivo doxorubicin accumulation in Swiss mice liver tissues; details: 2.5 μM lapatinib, 10 μM doxorubicin
Protocol: The fresh normal liver tissue adjacent to the hepatocellular carcinoma retrieved from Sun Yat-sen university cancer center was used for the drug accumulation assay ex vivo. Informed consent was obtained from the patients before tissue collection. The work was approved by the ethics review committee at Sun Yat-sen University (Guangzhou, China). Liver tissues of 50-100 mg were cut into small pieces (1mm^3) and cultured in DMEM containing 15% fetal bovine serum at 37°C. […] Subsequently, the tissues were then collected, centrifuged and washed twice with cold PBS containing 10 μM verapamil. Then, liver tissues were resuspended in 1 ml/100 mg tissues lysis solution which contained 0.3 mol/l HCl and 60% ethanol (1:1) and was homogenized at 4°C and then centrifuged at 12 000 × g [43]. The supernatant was removed and its fluorescence signal was measured by a spectrofluorometer at λex 470 nm and λem 590 nm. Simultaneously, the standard curve of doxorubicin was made with the same condition. The doxorubicin accumulation in liver tissues (μg/g) was calculated according to the fluorescence value using a standard curve.

[2] = target: T1, ABCB1-overexpressing HepG2/Adr cells (Homo sapiens, UniProt P08183); experiment: MTT cytotoxicity of doxorubicin with lapatinib, resistant cells; format: cell-based; details: lapatinib added 1 h before doxorubicin
T1 construct: The Dox-selected derivative ABCB1-overexpressing HepG2/Adr subline was established as previous study; endogenous in cells; host or cells: HepG2/Adr (doxorubicin-selected subline of human HepG2)
T1 sequence (P08183 whole entry): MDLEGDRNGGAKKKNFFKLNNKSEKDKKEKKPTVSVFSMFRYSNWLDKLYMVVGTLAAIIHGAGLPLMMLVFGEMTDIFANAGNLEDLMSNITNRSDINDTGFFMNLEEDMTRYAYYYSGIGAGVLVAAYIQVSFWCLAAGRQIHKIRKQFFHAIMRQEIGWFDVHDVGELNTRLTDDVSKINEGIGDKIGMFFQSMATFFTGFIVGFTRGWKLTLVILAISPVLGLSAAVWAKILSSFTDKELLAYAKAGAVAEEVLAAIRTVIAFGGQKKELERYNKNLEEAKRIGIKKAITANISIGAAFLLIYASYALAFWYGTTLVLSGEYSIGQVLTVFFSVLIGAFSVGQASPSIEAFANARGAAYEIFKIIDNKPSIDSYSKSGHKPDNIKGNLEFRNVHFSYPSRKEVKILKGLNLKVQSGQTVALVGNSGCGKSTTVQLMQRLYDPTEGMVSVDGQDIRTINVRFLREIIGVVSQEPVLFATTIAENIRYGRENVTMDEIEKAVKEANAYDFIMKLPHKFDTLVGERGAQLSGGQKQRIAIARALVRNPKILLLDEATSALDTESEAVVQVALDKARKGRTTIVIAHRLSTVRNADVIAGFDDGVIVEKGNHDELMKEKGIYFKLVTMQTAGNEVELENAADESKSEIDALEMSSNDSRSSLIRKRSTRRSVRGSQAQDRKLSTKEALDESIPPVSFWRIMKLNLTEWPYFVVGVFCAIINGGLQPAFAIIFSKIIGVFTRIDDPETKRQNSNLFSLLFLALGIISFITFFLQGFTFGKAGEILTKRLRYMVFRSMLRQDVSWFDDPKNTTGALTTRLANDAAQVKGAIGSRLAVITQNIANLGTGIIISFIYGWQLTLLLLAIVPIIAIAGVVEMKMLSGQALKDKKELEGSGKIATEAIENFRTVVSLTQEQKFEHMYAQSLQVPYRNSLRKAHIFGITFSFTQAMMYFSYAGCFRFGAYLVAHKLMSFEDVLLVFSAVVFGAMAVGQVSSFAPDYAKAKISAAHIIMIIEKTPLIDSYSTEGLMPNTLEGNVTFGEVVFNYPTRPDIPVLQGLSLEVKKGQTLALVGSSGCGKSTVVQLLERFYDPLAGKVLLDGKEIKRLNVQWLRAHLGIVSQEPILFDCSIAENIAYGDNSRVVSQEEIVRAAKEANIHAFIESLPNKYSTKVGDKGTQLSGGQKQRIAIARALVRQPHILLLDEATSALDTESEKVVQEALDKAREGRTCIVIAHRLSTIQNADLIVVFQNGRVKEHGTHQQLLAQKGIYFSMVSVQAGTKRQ
Protocol: (§1) We collected the cells and seeded them at a density of 3.0 × 10^3 cells per well in 96-well plates. […] After 68 h, MTT (5 mg/mL, 20 μL) was added into each well and cultured for another 4 h. Then the medium was discarded and each well was added with 120 μL DMSO. Finally, optical density was measured at 540 nm with background subtraction at 670 nm by Model 550 Microplate Reader (Bio-Rad, Hercules, CA, USA).

ABCB1 = ABCB1 expression by Western blot and qRT-PCR; format: cell-based, human; details: HepG2/Adr cells, lapatinib for 24, 48 or 72 h
Protocol: After being incubated in blocking solution containing 5% non-fat milk in TBST buffer (10 mM Tris-HCL (pH 8.0), 150 mM NaCl, and 0.1% Tween 20) for 2 h at room temperature, membranes were incubated with primary antibody ABCB1 (1:1000 dilution, Santa Cruz Biotechnology) and GAPDH (1:5000 dilution, Kangcheng Biotechnology). The membranes were then incubated for 2 h with HRP-conjugated secondary antibody at 1:5000 dilution. Immunoreactive bands were visualized by the enhanced Phototope TM-HRP Detection Kit (Cell Signaling, USA) and exposed to Kodak medical X-ray processor (Carestream Health, USA). Protein expression was quantified by Scion Image software (Scion Co, USA).
Total cellular RNA was isolated by Trizol Reagent (Gibco BRL, USA) RNA extraction kit following manufacture instruction. cDNA were prepared from the sensitive HepG2 and the resistant HepG2/Adr cells. Reverse transcription was done with reverse transcriptase (Promega Corp., Madison, WI). Oligonucleotides primers for ABCB1 and GAPDH were synthesized commercially (Invitrogen Co., China). They included ABCB1 (homo sapiens), sense primer, 5′-[sequence]-3′, antisense primer, 5′-[sequence]-3′; Abcb1 (mus), sense primer, 5′-[sequence]-3′, antisense primer, 5′-[sequence]-3′; GAPDH, sense primer, 5′-[sequence]-3′, antisense primer, 5′-[sequence]-3′. […] Relative quantification of ABCB1 was performed using the 2^−ΔΔCt method [46]. […]

HepG2 cells [3] = experiment: Doxorubicin and rhodamine 123 accumulation by flow cytometry in parental cells; format: cell-based, human; details: in the presence of lapatinib
Protocol: The human hepatocellular carcinoma cell line HepG2 was obtained from American Type Culture Collection (ATCC). The Dox-selected derivative ABCB1-overexpressing HepG2/Adr subline was established as previous study. All cells were grown in DMEM supplemented with 10% fetal bovine serum, 100 units/mL streptomycin sulfate and 100 units/mL penicillin G sulfate, and maintained at 37°C in the presence of 5% CO2. HepG2/Adr cells were cultured with 1.2 μM Dox to maintain its ABCB1-overexpressing properties. All cells were grown in drug-free culture medium for more than 2 weeks before assay.
The accumulation of doxorubicin or rhodamine 123 in HepG2 and HepG2/Adr cells was measured as previously described. Verapamil, a known ABCB1 inhibitor, was used as a positive control.

[4] = human pharmacokinetic studies ref 35, 36; cited from earlier work
HepG2 cells [5] = experiment: MTT cytotoxicity of doxorubicin with lapatinib, parental cells; format: cell-based, human; details: lapatinib added 1 h before doxorubicin
Protocol: as §1

| MRT (in vivo; in vivo, 18 mg/kg) | Vd (in vivo; in vivo, 18 mg/kg) | clearance (in vivo; in vivo, 18 mg/kg) | half-life (in vivo; in vivo, 18 mg/kg) | AUC(0-inf) (in vivo; in vivo, 10 mg/kg) | AUC(0-t) (in vivo; in vivo, 10 mg/kg) | Vd (in vivo; in vivo, 10 mg/kg) | MRT (in vivo; plasma, 10 mg/kg) | half-life (in vivo; plasma, 10 mg/kg) | SMILES | patients who showed grade 1 abnormal hepatic function [1] | liver histology (HE staining) (liver) | increase of fluorescent index of doxorubicin (Swiss mice liver tissues) | effect on cytotoxicity of doxorubicin [2] | ABCB1 RNA and protein expressions (ABCB1) | intracellular accumulation of doxorubicin (HepG2 cells [3]) | intracellular accumulation of rhodamine 123 (HepG2 cells [3]) | half-life [4] | highest peak plasma lapatinib concentration [4] | effect on cytotoxicity of doxorubicin (HepG2 cells [5]) |
| --- | --- | --- | --- | --- | --- | --- | --- | --- | --- | --- | --- | --- | --- | --- | --- | --- | --- | --- | --- |
| 1.42 ± 0.08 h | 0.015 ± 0.00128 L | 0.139 mL/min | 1.24 ± 0.06 h |  |  |  |  |  | CC(=O)O[C@H]1C(=O)[C@@]2(C)[C@H]([C@H](OC(=O)c3ccccc3)[C@]3(O)C[C@H](OC(=O)[C@H](O)[C@@H](NC(=O)c4ccccc4)c4ccccc4)C(C)=C1C3(C)C)[C@]1(OC(C)=O)CO[C@@H]1C[C@@H]2O [Paclitaxel, paclitaxel] | 2 patients | mild liver damage |  |  |  |  |  |  |  |  |
|  |  |  |  |  |  |  |  |  | CS(=O)(=O)CCNCc1ccc(-c2ccc3ncnc(Nc4ccc(OCc5cccc(F)c5)c(Cl)c4)c3c2)o1 [Lapatinib] |  |  | 2.46 fold | enhance the cytotoxicity effect of doxorubicin in HepG2/Adr cells in a concentration-dependent manner | not significantly altered | not altered | not altered | approximately 17 h | roughly 3 μM | not in the parental HepG2 cells |
|  |  |  |  | 2960 ± 878 ng·h/mL | 2920 ± 841 ng·h/mL | 0.00339 ± 0.00121 L | 7.51 ± 1.08 h | 5.2 ± 0.75 h | COc1cccc2c1C(=O)c1c(O)c3c(c(O)c1C2=O)C[C@@](O)(C(=O)CO)C[C@@H]3O[C@H]1C[C@H](N)[C@H](O)[C@H](C)O1 [Doxorubicin] |  | mild central venous hyperemia, Hepatic cord disorder and vacuolar degeneration |  |  |  |  |  |  |  |  |
